Measured values reported in patent US6423689B1, “Peptidyl calcium channel blockers” (Warner-Lambert Company, priority 1997, dated 2002).
Where two headings read alike, the source gives them in different places.

What was measured:
[1] = target: T1, N-type Ca2+ channels in superior cervical ganglion (SCG) neurons (Rattus norvegicus, UniProt Q02294); assay: Whole-cell voltage clamp, N-type Ca2+ current in SCG neurons; format: cell-based; conditions: for IC50: read-out: Inhibition of N-type Ca2+ Current IC50
T1 construct: from tissue
T1 sequence (Q02294 whole entry): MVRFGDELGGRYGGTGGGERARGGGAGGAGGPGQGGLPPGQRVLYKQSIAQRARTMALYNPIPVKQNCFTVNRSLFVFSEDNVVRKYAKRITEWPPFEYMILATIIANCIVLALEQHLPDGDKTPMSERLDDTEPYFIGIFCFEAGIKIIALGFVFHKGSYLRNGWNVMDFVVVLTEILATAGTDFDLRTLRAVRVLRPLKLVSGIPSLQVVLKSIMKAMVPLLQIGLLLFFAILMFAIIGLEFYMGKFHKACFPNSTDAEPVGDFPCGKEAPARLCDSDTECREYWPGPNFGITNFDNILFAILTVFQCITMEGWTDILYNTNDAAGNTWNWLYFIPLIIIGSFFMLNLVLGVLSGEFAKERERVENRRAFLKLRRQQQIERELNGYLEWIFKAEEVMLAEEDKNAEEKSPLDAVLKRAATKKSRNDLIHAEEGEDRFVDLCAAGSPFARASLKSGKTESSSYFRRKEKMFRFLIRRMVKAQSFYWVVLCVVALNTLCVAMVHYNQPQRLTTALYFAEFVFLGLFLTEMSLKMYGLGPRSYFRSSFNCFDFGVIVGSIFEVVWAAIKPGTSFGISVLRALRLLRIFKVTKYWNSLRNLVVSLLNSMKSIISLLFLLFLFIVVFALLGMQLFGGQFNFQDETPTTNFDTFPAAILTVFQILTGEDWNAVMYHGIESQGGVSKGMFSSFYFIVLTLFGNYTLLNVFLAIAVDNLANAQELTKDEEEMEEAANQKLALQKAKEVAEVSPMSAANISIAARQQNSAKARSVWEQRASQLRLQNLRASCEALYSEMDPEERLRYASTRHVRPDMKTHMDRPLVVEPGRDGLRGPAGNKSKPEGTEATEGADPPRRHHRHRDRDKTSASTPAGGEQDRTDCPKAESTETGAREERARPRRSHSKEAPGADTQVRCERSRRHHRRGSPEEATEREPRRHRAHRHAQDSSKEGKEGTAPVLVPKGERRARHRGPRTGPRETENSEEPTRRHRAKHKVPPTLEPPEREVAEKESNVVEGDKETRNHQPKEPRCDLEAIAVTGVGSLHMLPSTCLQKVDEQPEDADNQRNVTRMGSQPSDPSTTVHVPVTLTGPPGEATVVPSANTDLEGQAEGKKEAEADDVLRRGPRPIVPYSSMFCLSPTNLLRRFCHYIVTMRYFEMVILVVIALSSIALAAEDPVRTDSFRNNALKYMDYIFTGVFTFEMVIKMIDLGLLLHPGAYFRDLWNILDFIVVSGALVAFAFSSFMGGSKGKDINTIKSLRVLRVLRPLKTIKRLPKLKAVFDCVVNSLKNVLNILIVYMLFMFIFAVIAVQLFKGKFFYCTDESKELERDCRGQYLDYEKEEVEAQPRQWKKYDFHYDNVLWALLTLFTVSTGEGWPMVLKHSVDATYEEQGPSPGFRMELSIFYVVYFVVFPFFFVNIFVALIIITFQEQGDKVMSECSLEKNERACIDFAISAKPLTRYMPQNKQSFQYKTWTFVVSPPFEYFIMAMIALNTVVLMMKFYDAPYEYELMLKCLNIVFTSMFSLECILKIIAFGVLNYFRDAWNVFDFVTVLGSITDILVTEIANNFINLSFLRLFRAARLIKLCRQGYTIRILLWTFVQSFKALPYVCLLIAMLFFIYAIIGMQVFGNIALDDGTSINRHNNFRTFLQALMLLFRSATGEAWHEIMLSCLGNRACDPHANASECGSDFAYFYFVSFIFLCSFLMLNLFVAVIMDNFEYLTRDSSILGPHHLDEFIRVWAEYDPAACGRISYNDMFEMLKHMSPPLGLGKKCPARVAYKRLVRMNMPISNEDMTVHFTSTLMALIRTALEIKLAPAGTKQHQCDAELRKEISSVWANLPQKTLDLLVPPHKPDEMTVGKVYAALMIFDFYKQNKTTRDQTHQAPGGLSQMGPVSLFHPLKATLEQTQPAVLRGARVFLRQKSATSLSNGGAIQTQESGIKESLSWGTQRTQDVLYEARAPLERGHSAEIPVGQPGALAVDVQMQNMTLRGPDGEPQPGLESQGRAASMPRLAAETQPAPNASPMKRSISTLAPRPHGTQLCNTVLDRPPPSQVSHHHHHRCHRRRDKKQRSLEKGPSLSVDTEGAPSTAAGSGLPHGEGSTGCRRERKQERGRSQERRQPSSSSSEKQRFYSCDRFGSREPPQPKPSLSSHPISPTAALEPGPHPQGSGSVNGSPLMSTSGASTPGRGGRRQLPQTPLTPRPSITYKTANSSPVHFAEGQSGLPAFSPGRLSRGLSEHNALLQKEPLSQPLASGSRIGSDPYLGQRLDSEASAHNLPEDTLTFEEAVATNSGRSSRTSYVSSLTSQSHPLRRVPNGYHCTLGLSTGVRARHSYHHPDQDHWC
T1 sequence (P54290 25-944 partner limits assumed): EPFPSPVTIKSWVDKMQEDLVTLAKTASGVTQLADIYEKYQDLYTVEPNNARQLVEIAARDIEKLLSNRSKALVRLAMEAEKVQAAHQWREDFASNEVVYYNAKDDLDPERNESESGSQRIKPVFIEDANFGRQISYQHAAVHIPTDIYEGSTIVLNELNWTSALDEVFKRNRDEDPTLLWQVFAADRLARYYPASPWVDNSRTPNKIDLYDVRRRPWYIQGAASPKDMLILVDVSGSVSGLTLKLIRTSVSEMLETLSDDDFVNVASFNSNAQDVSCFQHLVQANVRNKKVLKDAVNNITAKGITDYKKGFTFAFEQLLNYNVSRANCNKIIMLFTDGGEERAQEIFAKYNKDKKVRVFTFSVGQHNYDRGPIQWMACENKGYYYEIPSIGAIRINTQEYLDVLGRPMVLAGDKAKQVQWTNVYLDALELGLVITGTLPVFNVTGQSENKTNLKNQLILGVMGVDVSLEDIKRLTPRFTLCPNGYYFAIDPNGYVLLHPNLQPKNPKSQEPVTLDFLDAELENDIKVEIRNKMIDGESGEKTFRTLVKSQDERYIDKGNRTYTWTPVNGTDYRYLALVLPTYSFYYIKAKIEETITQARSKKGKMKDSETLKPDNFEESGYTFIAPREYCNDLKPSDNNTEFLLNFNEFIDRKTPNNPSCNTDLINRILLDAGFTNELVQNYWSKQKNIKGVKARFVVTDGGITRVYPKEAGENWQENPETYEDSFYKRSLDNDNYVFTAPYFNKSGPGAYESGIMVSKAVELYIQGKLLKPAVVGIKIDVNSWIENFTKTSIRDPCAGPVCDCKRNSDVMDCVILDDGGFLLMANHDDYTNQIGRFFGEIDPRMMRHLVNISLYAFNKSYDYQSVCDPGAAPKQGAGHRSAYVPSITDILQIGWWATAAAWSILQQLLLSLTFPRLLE
T1 sequence (P54290 945-1091 partner limits assumed): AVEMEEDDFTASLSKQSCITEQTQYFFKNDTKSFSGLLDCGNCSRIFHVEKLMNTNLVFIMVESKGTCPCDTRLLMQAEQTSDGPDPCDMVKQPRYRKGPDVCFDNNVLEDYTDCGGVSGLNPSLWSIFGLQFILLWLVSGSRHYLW
T1 sequence (P54287 whole entry partner): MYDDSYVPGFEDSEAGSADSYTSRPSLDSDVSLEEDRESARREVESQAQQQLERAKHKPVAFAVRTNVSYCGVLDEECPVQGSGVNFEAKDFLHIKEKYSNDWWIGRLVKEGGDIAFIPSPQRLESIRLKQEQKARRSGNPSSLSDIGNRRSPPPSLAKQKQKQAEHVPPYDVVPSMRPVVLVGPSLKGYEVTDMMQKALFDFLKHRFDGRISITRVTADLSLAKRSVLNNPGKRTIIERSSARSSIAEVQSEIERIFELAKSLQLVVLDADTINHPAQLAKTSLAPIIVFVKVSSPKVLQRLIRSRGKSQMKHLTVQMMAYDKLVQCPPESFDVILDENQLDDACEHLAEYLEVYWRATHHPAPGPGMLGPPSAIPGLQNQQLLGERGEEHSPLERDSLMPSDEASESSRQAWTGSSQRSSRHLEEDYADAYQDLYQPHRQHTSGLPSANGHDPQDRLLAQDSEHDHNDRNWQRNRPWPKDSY
Method in brief: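 Whole-cell voltage clamp of acutely trypsin-dissociated rat SCG neurons, with TEA/choline external solution (2 mM Ca2+) and Cs-methanesulfonate pipette solution. Currents evoked by 150 ms steps to +20 mV from −65 to −55 mV holding, every 40 s; compounds applied locally, effect as % inhibition of control amplitude.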

[2] = system: K+ channels in superior cervical ganglion (SCG) neurons; assay: Whole-cell voltage clamp, K+ current in SCG neurons; format: cell-based, rat
Method in brief: (§1)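 Percent inhibition of control amplitude at steady-state block is the read-out: peak inward Na+ current at 0 mV, sustained K+ current at +50 mV, 35 msec steps every 10 sec from −65 to −55 mV. Recordings used whole-cell clamp of trypsin-dissociated SCG neurons, pH 7.4 external and pipette solutions, compounds applied by local perfusion.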

[3] = system: Na+ channels in superior cervical ganglion (SCG) neurons; assay: Whole-cell voltage clamp, Na+ current in SCG neurons; format: cell-based, rat
Method in brief: as §1

DBA/2 mice = assay: animal or person; format: in vivo; conditions: for responders at 10 mg/kg / responders at 30 mg/kg / responders at 100 mg/kg: Mus musculus, iv, read-out: Number of Mice Protected from Tonic Convulsions
Description: Audiogenic Seizure Model in DBA/2 Mice
In Vivo Biological Protocol
A compound of the present invention was dissolved in water using 10% (weight/volume) Emulphor (GAF Cop., Wayne N.J. surfactant. Substances were administered by intravenous injection the retro-orbital venous sinus. […] All the male mice, 3-4 weeks old were obtained from Jackson Laboratories Bar Harbour, Me. Immediately before anticonvulsant testing, mice were placed upon a wire mesh, 4 inches square suspended from a steel rod. The square was slowly inverted through 180 degree and mice observed for 30 seconds. Any mouse falling from the wire mesh was scored as ataxia.
Mice were placed into an enclosed acrylic plastic chamber (21 cm in height, approximately 30 cm diameter) with a high-frequency speaker (4 cm diameter) in the center of the top lid. An audio signal generator (Protek model B-810) was used to produce a continuous sinusoidal tone that was swept linearly in frequency between 8 kHz and 16 kHz once each 10 msec. The average sound pressure level (SPL) during stimulation was approximately 100 dB at the floor of the chamber. Mice were placed within the chamber and allowed to acclimatize for 1 minute. DBA/2 mice in the vehicle-treated group responded to the sound stimulus (applied until tonic extension occurred, or for a maximum of 60 sec) with a characteristic seizure sequence consisting of wild running followed by clonic seizures, and later by tonic extension, and finally by respiratory arrest and death in 80% or more of the mice. In vehicle-treated mice, the entire sequence of seizures to respiratory arrest lasts approximately 15-20 seconds.
The incidence of all the seizure phases in the drug-treated and vehicle-treated mice was recorded, and the occurrence of tonic seizures were used for calculating anticonvulsant ED50 values by probit analysis. Mice were used only once for testing at each time and dose point.

Row | SMILES | IC50 [1] [µM] | Inhibition of K+ Current, % Inhibition at 10 μM [2] [%] | Inhibition of Na+ Current, % Inhibition at 10 μM [3] [%] | inhibition at 10 µM ([1]; 10 μM) [%] | responders at 30 mg/kg (DBA/2 mice; 0.25 h) [%] | further results
1 | CC(C)(C)OC(=O)[C@H](Cc1ccc(OCc2ccccc2)cc1)NC(=O)CNC(=O)N1CCCCCC1 (stereo in doubt) [Example 8, [S-(R*,R*)]-2-{2-[(Azepane-1-carbonyl)-amino]-acetylamino}-3-(4-benzyloxy-phenyl)-propionic acid tert-butyl ester] | 1.92 | 72 | 43 | – | – | Inhibition of N-type Ca2+ Current, % Inhibition at 10 μM ([1]; 10 μM): 86%; Number of Mice Protected from Tonic Convulsions (DBA/2 mice; 30 mg/Kg iv, 15 min post treatment): 4/5
2 | CC(C)C[C@H](NC(=O)N1CCCCCC1)C(=O)N[C@@H](Cc1ccc(OCc2ccccc2)cc1)C(=O)OC(C)(C)C [Example 1] | 1.27 | 31 | 28 | 68 | 100 | IC50 ([2]; read-out: Inhibition of K+ Current IC50): 24 µM; IC50 ([3]; read-out: Inhibition of Na+ Current IC50): 14 µM; responders at 10 mg/kg (DBA/2 mice; 0.25 h): 0%; responders at 100 mg/kg (DBA/2 mice; 0.25 h): 100%; responders at 100 mg/kg (DBA/2 mice; 0.5 h): 100%; responders at 10 mg/kg (DBA/2 mice; 0.75 h): 0%; responders at 100 mg/kg (DBA/2 mice; 1 h): 0%
3 | CC(C)(C)OC(=O)[C@H](Cc1ccc(OCc2ccccc2)cc1)NC(=O)[C@H](Cc1ccccc1)NC(=O)N1CCCCCC1 [Example 16] | – | 20 | 38 | 19 | – | –
4 | CC(C)C[C@H](NC(=O)N1CCCCCC1)C(=O)N[C@@H](Cc1ccc(OCc2ccccc2)cc1)C(N)=O [Example 21, [S-(R*,R*)]-Azepane-1-carboxylic acid {1-[2-(4-benzyloxy-phenyl)-1-carbamoyl-ethylcarbamoyl]-3-methyl-butyl}-amide] | – | 56 | 16 | 45 | – | responders at 30 mg/kg (DBA/2 mice; 0.75 h): 0%
5 | CC(C)C[C@H](NC(=O)N1CCCCCC1)C(=O)N[C@@H](Cc1ccc(OCc2ccccn2)cc1)C(=O)OC(C)(C)C [Example 25, [S-(R*,R*)]-2-{2-[(Azepane-1-carbonyl)-amino]-4-methyl-pentanoylamino}-3-[4-(pyridin-2-ylmethoxy)-phenyl]-propionic acid tert-butyl ester] | 5.33 | 51 | 16 | 66 | 100 | –
6 | CC(C)C[C@H](NC(=O)N1CCCCCC1)C(=O)N[C@@H](Cc1ccc(OCc2ccncc2)cc1)C(=O)OC(C)(C)C [Example 26, [S-(R*,R*)]-2-{2-[(Azepane-1-carbonyl)-amino]-4-methyl-pentanoylamino}-3-[4-(pyridin-4-ylmethoxy)-phenyl]-propionic acid tert-butyl ester] | – | 41 | 13 | 58 | – | responders at 10 mg/kg (DBA/2 mice; 0.25 h): 100%
7 | CC(C)C[C@H](NC(=O)N1CCCCCC1)C(=O)N[C@@H](Cc1ccc(C#CC2(O)CCCCC2)cc1)C(=O)NC(C)(C)C [Example 138, [S-(R*,R*)]-Azepane-1-carboxylic acid (1-({-tert-butylcarbamoyl-2-[4-(1-hydroxy-cyclohexylethynyl)-phenyl]-ethylcarbamoyl}-3-methyl-butyl)-amide] | – | 43 | 31 | 17 | – | –
8 | CC(C)C[C@H](NC(=O)N1CCCCCC1)C(=O)N[C@@H](Cc1ccc(C=Cc2ccccc2)cc1)C(=O)NC(C)(C)C [Example 141, [S-(R*,R*)]-Azepane-1-carboxylic acid {1-[1-tert-butylcarbamoyl-2-(4-styryl-phenyl)-ethylcarbamoyl]-3-methyl-butyl}-amide] | – | 42 | 18 | 39 | – | –
9 | CC(C)C[C@H](NC(=O)N1CCCCCC1)C(=O)N[C@@H](Cc1ccc(OCc2ccccc2)cc1)C(=O)NCCCn1ccnc1 [Example 237, [S-(R*,R*)]-Azepane-1-carboxylic acid {(1-[2-(4-benzyloxy phenyl)-1-(3-imidazol-1-yl-propylcarbamoyl)-ethylcarbamoyl]-3-methyl-butyl}-amide] | – | – | – | 79 | 0 | –
